# Laboratory results: patent publication US20110034531A1, “USE OF HDAC INHIBITORS FOR THE TREATMENT OF MELANOMA” (NOVARTIS AG, priority 2007, published 2011)
# What was measured:
# A2058 = assay: Monolayer growth inhibition assay (MTT/MTS), A2058; format: cell-based; settings: A2058 melanoma cell line, treated for 3 days
# Source text: (§1) The MTT is a colorimetric assay to determine the cell proliferation rate. The yellow tetrazolium MTT (3-(4,5-dimethylthiazolyl-2)-2,5-diphenyltetrazolium bromide) is reduced by metabolically active cells, in part by the action of dehydrogenase enzymes, to generate reducing equivalents, such as NADH and NADPH. The resulting intracellular purple formazan can be solubilized and quantified by spectrophotometric means. The signals produced is directly proportional to the cell numbers. Describing the MTT assay in detail, experiments were done using six-point or nine-point drug titrations in multi-well tissue culture dishes, with outer rows left empty. Cells were suspended in complete media at densities of between 10^3 and 10^4 cell/mL, respectively, and added per well. The appropriate medium (200 μL) was then added. […] This plate was incubated at 37° C. for 4 hours and the optical density was measured on a Molecular Devices Thermomax at 490 nm using the Softmax program. […]
# (§2) Compound addition began 24 hours after seeding, the same time as the T0 determination. […] The MTS solution was added (as for the To plate) and read 4 hours later. […]
# (§3) A panel of Melanoma cell lines were treated with DMSO vehicle control or varying concentrations of LBH589 for 3 days. Cell proliferation was measured on the day of cell plating and on the third day post-treatment. IC50 and LD50 values were calculated as described above.
# MeWo = assay: Monolayer growth inhibition assay (MTT/MTS), MeWo; format: cell-based; settings: MeWo melanoma cell line, treated for 3 days
# Source text: as §1, §2, §3
# G-361 = assay: Monolayer growth inhibition assay (MTT/MTS), G-361; format: cell-based; settings: G-361 melanoma cell line, treated for 3 days
# Source text: as §1, §2, §3
# WM-266-4 = assay: Monolayer growth inhibition assay (MTT/MTS), WM-266-4; format: cell-based; settings: WM-266-4 melanoma cell line, treated for 3 days
# Source text: as §1, §2, §3
# A375 = assay: Monolayer growth inhibition assay (MTT/MTS), A375; format: cell-based; settings: A375 melanoma cell line, treated for 3 days
# Source text: as §1, §2, §3
# [1] = system: panel of Melanoma cell lines
# Source text: as §1, §2, §3
# SK-MEL-5 = assay: Monolayer growth inhibition assay (MTT/MTS), SK-MEL-5; format: cell-based; settings: SK-MEL-5 melanoma cell line, treated for 3 days
# Source text: as §1, §2, §3
# SK-MEL-28 = assay: Monolayer growth inhibition assay (MTT/MTS), SK-MEL-28; format: cell-based; settings: SK-MEL-28 melanoma cell line, treated for 3 days
# Source text: as §1, §2, §3
# RPMI-7951 = assay: Monolayer growth inhibition assay (MTT/MTS), RPMI-7951; format: cell-based; settings: RPMI-7951 melanoma cell line, treated for 3 days
# Source text: as §1, §2, §3
# [2] = concentration reducing cell number to 50% of original inoculum
# [3] = Homo sapiens, 72 h, read-out: IC50 [nM] Measure of Cell Growth Inhibition
smiles,measurement,setting,value
"Cc1[nH]c2ccccc2c1CCNCc1ccc(/C=C/C(=O)NO)cc1 [LBH589, N-hydroxy-3-[4-[[[2-(2-methyl-1H-indol-3-yl)-ethyl]-amino]methyl]phenyl]-2E-2-propenamide]",LD50 (nM) Measure of Cell Kill,A2058; [2],58.96 nM
same,IC50,A2058; [3],17.8 nM
same,IC50,MeWo; [3],34.5 nM
same,LD50 (nM) Measure of Cell Kill,MeWo; [2],157.64 nM
same,LD50 (nM) Measure of Cell Kill,G-361; [2],51.44 nM
same,IC50,G-361; [3],8.09 nM
same,IC50,WM-266-4; [3],26.4 nM
same,LD50 (nM) Measure of Cell Kill,WM-266-4; [2],73.05 nM
same,LD50 (nM) Measure of Cell Kill,A375; [2],77.83 nM
same,IC50,"A375; Homo sapiens, A-375, 72 h, read-out: IC50 [nM] Measure of Cell Growth Inhibition",32.7 nM
same,"LD50, cytotoxic effect",[1]; 3 days,< 160 nM
same,"IC50 values, anti-proliferative effect","[1]; all 8 melanoma cell lines examined, treated for 3 days",low nanomolar
same,IC50,SK-MEL-5; [3],6.15 nM
same,LD50 (nM) Measure of Cell Kill,SK-MEL-5; [2],54.95 nM
same,IC50,SK-MEL-28; [3],43.1 nM
same,LD50 (nM) Measure of Cell Kill,SK-MEL-28; [2],129.33 nM
same,IC50,RPMI-7951; [3],27.6 nM
same,LD50 (nM) Measure of Cell Kill,RPMI-7951; [2],71.63 nM
